Assay results taken from patent US20210130339A1, “COMPOUNDS” (GLAXOSMITHKLINE INTELLECTUAL PROPERTY DEVELOPMENT LIMITED, priority 2017, published 2021).
Several values for one entry are separate records, joined by “and”; a condition that tells them apart may be missing. Identical values can stand only once.

What was measured:
[1] = molecular target: T1, recombinant full length LRRK2 (Homo sapiens, UniProt Q5S007); assay: Recombinant cellular LRRK2 AlphaScreen assay; format: cell-based; conditions: LRRK2 Ser935 phosphorylation, SH-SY5Y cells over-expressing recombinant full length LRRK2; read-out: pIC50 in the recombinant cellular LRRK2 AlphaScreen assay (converted)
T1 construct: A BacMam virus expressing full length recombinant LRRK2 was purchased from Invitrogen; host or cells: SH-SY5Y human neuroblastoma cells transduced with BacMam LRRK2 virus (MOI 50)
Outline: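 SH-SY5Y neuroblastoma cells transduced with BacMam full-length human LRRK2 (MOI 50, 24 h) were treated with compounds for 60 min at 37 °C, top final 10 µM. Lysates probed by AlphaScreen for pSer935 versus total LRRK2; sigmoidal dose-response fit.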

[2] = molecular target: T2, Full length G2019 human LRRK2 (Homo sapiens, UniProt Q5S007); assay: Full length G2019 human LRRK2 Inhibition Mass Spectrometry assay; format: biochemical; conditions: LRRKtide substrate, RapidFire mass spectrometry; read-out: pIC50 in the Full length G2019 human LRRK2 Inhibition Mass Spectrometry assay (converted)
T2 construct: purified recombinant Full length Flag-LRRK2 in assay buffer; made in house; host or cells: HEK293 6E cells transduced with BacMam virus (virus generated in Sf9 cells)
Method: a. Full Length G2019 Human LRRK2 Inhibition Mass Spectrometry Assay
This assay for Leucine Rich Repeat Kinase 2 (LRRK2) inhibition is based on the direct measurement of the peptide ‘LRRKtide’ (LRRKtide: RLGRDKYKT*LRQIRQ and “*” refers to the site of phosphorylation.) and phosphorylated ‘LRRKtide’ using a high throughput RapidFire mass spectrometry assay. Inhibitors are compounds that reduce the conversion of LRRKtide to phospho-LRRKtide.
HEK293 6E cells were incubated in a 37° C. incubator with a humidified atmosphere of 5% CO2 on an orbital shaker rotating at 110 rpm. On the day of transduction, the cell viability was higher than 98% and the cell density was in the range of 1×10^6˜1.5×10^6 cells/ml. HEK293 6E cells were centrifuged at 1,000 rpm for 10 min, and then the cells were resuspended in fresh Freestyle 293 expression medium (Invitrogen:12338) with 0.1% F-68 (Invitrogen:24040-032) but without antibiotics (G418) at density of 1×10^6 cells/ml. BacMam virus with Flag-hu LRRK2 (genotypically normal) gene was centrifuged at 40,000 g for 2 hours, then resuspended in fresh Freestyle 293 expression medium. The resuspended virus was added into the cells in at MOI of 10. The cells were incubated in a 37° C. incubator with a humidified atmosphere of 5% CO2 in air on an orbital shaker rotating at 110 rpm. Cultures were harvested at approximately 48 hours post-transduction by centrifugation at 4,000 rpm for 20 min and pellets were frozen for purification.
The suspended cells were lysed by sonication on ice for 30 min (2 secs on/4 sec off, 20% amplitude), and centrifuged at 10,000 rpm for 30 minutes at 4° C. The supernatant was incubated with 1 mL per litre of cell culture of anti-Flag magnetic beads (Sigma-Aldrich: M8823) at 4° C. for 3 hours, then the beads were washed by 5 mL (5 column volume) binding buffer (50 mM Tris pH7.5@ 4C, 500 mM NaCl, 0.5 mM EDTA, 0.1% TritonX-100, 10% glycerol, freshly add 2 mM DTT) for three times. The Flag tagged LRRK2 proteins were eluted by Elution buffer (50 mM Tris pH7.5@ 4C, 500 mM NaCl, 0.5 mM EDTA, 0.1% TritonX-100, 10% glycerol, freshly add 2 mM DTT, 250 ug/ml Flag peptide (Sigma-Aldrich:F3290)) at 4° C. for 2 hours. Flag peptide was removed by Zeba Spin Desalting Columns, 7K MWCO (Thermo-Fisher: 89893) and the buffer of eluted LRRK2 proteins was exchanged into Storage Buffer (50 mM Tris pH7.5@4C, 150 mM NaCl, 0.5 mM EDTA, 0.02% Triton X-100, 2 mM DTT and 50% Glycerol) using Amicon Ultra Centrifugal Filter Units (100 kD) (Merck: UFC910096). Fractions containing LRRK2 proteins were pooled, aliquoted and stored at −80° C. Protein concentration was determined by Bradford protein assay, and protein purity was analyzed by NuPAG Novex 4-12% Bis-Tris Protein Gels (Invitrogen: NP0322BOX).
• 1) A 10 mM test compound was dissolved in 100% DMSO and serially diluted 1 in 4. 100 nL of this dilution series was then added to a 384 well, v bottom polypropylene plate, excluding columns 6 and 18. 100 nL of DMSO was added to columns 6 and 18 as controls wells. Assay dilution gave a top final assay concentration of test compound of 100 μM • 2) 50 μl of 1% formic acid in laboratory grade water was added to column 18 using a multidrop combi dispenser to act as a pre stopped assay control. • 3) 5 μl of ‘enzyme solution’ containing 50 nM of purified recombinant Full length Flag-LRRK2 in assay buffer (50 mM Hepes (pH 7.2), 10 mM MgCl2, 150 mM NaCl, 5% glycerol, 0.0025% triton X-100 and 1 mM DTT) was added to all wells using a multidrop combi dispenser, giving a final assay concentration of 25 nM LRRK2 enzyme. […] Test plates were then incubated for 30 minutes at room temperature. • 4) 5 μl ‘substrate solution’ containing 50 uM LRRKtide peptide substrate and 4 mM ATP was added to all wells of the plate using a multidrop combi dispenser giving a final assay concentration of 25 uM LRRKtide and 2 mM ATP. Test plates were then incubated for 1 hour at room temperature. […]

T2 sequence (Q5S007 with tags, fused parts or gaps R50H): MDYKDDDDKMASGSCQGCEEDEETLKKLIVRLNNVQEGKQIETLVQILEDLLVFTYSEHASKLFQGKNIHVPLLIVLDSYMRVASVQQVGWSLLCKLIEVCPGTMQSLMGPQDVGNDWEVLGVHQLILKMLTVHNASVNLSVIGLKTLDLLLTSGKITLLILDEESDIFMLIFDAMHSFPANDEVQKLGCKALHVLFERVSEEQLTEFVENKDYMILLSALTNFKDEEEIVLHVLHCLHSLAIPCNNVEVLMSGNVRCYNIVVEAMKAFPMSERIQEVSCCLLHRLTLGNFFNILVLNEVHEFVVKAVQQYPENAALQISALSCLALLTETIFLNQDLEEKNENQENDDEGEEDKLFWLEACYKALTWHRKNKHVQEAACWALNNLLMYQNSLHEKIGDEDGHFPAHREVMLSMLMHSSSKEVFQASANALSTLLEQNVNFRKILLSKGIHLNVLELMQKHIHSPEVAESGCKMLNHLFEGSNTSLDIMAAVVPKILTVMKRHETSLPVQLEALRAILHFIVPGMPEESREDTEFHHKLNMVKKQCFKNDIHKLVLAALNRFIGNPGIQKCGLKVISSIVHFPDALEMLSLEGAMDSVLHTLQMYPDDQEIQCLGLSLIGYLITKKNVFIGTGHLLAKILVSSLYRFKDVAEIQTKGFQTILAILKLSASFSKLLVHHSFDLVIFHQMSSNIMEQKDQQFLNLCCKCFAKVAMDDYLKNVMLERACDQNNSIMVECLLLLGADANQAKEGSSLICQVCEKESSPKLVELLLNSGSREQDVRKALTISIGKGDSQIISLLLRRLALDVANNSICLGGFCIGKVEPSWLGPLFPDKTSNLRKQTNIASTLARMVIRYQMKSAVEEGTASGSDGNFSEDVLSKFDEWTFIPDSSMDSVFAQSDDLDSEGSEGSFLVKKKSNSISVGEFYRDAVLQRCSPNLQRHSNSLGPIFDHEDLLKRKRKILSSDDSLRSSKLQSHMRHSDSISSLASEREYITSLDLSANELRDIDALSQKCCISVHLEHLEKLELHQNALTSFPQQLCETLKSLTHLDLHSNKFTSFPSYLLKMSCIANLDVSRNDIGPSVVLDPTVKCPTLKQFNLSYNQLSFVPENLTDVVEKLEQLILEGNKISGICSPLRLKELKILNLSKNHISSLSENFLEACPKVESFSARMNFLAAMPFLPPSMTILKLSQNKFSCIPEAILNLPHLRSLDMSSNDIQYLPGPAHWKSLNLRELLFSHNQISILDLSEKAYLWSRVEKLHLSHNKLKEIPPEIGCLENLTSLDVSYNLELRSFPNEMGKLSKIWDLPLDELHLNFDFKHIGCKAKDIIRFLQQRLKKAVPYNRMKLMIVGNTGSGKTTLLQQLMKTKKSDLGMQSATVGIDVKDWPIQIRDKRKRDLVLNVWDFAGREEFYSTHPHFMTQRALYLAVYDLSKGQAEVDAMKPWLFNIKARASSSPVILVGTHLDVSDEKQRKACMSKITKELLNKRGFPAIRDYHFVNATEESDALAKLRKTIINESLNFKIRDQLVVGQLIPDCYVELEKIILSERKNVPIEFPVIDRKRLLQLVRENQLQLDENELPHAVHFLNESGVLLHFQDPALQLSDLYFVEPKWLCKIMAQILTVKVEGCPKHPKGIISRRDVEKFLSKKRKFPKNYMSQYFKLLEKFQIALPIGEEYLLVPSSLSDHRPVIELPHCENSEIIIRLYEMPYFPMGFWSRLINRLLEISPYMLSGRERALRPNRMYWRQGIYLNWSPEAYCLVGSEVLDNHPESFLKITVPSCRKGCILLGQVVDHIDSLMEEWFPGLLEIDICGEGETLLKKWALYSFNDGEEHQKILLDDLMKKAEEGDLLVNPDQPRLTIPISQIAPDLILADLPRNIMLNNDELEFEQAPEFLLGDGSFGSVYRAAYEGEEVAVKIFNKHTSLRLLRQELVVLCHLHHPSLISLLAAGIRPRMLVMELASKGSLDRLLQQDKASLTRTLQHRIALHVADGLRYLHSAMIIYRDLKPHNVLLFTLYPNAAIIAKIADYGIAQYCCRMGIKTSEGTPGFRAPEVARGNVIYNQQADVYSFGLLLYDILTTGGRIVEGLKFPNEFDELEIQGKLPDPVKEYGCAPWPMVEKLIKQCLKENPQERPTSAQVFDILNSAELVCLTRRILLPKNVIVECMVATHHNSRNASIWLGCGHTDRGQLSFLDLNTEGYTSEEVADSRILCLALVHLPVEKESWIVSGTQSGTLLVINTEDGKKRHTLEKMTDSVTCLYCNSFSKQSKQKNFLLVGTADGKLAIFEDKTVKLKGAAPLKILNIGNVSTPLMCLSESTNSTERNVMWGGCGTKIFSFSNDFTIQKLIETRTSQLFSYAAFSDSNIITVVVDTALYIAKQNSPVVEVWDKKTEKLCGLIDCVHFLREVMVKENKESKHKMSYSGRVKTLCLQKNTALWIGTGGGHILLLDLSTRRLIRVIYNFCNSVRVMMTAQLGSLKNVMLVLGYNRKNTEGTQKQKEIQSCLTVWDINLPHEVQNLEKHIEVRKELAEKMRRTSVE
T1 sequence (Q5S007 whole entry): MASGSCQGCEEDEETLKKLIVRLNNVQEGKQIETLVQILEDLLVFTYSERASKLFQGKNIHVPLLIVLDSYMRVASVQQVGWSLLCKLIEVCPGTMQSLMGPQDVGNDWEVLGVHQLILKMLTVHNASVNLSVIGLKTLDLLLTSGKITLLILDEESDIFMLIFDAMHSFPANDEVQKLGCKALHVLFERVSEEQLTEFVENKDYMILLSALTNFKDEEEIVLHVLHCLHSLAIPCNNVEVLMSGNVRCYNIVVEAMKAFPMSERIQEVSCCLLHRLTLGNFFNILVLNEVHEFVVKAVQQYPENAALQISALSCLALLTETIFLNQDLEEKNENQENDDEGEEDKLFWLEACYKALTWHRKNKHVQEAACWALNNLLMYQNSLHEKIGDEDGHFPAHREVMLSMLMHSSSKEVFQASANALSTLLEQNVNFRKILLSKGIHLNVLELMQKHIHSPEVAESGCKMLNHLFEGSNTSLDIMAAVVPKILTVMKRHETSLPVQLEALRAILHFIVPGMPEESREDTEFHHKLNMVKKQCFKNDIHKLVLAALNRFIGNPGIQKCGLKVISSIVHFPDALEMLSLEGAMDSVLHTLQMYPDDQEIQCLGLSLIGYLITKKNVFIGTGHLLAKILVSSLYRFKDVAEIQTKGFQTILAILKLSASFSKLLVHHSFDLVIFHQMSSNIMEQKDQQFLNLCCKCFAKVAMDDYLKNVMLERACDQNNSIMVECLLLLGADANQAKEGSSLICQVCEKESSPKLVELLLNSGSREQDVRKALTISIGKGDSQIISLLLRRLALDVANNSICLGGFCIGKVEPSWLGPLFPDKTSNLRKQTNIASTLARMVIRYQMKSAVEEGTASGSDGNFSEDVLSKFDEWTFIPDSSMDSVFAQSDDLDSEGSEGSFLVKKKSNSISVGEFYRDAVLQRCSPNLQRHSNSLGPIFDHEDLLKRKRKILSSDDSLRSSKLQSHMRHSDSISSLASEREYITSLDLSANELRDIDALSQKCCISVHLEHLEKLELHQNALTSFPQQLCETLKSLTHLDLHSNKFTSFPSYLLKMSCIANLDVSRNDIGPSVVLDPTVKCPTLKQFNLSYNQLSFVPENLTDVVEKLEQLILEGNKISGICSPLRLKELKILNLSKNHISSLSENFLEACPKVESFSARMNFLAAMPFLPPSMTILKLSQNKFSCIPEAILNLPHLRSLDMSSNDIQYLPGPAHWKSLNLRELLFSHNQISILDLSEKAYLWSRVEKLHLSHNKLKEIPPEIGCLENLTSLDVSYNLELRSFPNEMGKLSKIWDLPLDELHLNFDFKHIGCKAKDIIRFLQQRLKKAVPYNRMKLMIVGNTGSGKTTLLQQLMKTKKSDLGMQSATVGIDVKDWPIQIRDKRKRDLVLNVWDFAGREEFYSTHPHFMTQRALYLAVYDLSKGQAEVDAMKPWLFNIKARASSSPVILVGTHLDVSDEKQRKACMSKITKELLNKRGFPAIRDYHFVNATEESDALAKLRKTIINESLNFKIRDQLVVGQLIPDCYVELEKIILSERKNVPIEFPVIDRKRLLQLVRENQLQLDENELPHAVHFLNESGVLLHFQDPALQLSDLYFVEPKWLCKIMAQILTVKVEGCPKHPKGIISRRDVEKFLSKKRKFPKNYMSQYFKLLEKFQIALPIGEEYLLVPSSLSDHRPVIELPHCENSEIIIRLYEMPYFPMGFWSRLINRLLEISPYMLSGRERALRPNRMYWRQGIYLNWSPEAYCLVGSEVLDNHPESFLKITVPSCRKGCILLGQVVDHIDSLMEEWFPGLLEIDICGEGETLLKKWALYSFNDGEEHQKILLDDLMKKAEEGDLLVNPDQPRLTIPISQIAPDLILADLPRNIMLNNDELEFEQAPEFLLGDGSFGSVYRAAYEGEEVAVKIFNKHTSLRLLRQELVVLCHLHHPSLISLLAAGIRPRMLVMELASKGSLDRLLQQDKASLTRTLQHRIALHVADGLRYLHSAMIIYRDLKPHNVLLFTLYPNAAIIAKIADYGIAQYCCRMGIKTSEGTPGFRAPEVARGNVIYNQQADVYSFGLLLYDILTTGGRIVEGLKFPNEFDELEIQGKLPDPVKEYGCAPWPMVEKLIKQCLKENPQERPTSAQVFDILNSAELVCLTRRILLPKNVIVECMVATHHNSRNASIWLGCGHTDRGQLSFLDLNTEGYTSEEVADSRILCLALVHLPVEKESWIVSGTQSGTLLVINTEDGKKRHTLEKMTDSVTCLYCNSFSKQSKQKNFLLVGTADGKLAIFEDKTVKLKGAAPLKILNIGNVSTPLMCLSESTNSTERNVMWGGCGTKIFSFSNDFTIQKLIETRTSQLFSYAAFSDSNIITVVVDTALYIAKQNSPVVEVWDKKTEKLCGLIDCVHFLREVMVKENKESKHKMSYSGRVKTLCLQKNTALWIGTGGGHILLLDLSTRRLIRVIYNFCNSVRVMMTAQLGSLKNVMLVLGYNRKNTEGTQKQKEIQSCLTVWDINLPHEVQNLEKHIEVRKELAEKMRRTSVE

| IC50 [1] | IC50 [2] | Structure (SMILES) |
| --- | --- | --- |
| ≤ 10 nM | ≤ 10 nM | COc1nc(N2CCOCC2)cc(-n2ncc3cc(C)c(C4CCN(C5CCOC5)CC4F)cc32)n1 (single isomer, unassigned) [Example E115, Cis-4-(6-(6-(3-fluoro-1-(tetrahydrofuran-3-yl)-piperidin-4-yl)-5-methyl-1H-indazol-1-yl)-2-methoxypyrimidin-4-yl)morpholine] |
| ≤ 100 nM | ≤ 100 nM | COc1nc(N2CCOCC2)cc(-n2ncc3cc(C)c(C4CCN(C5CCOC5)CC4F)cc32)n1 (single isomer, unassigned) [Example E116, Cis-4-(6-(6-(3-fluoro-1-(tetrahydrofuran-3-yl)-piperidin-4-yl)-5-methyl-1H-indazol-1-yl)-2-methoxypyrimidin-4-yl)morpholine] |
| ≤ 100 nM | ≤ 1000 nM | Cc1nc(N2CCO[C@H](CO)C2)cc(-n2ncc3cc(C)c(C4CCN(C5COCC5F)CC4)cc32)n1 (single isomer, unassigned) [Example E150] |
| ≤ 1000 nM | ≤ 100 nM | Cc1nc(N2CCOC(C(C)O)C2)cc(-n2ncc3cc(C)c(C4CCN(C5CCOC5)CC4)cc32)n1 (single isomer, unassigned) [Example E137, 1-(4-(2-methyl-6-(5-methyl-6-(1-(tetrahydrofuran-3-yl)piperidin-4-yl)-1H-indazol-1-yl)pyrimidin-4-yl)morpholin-2-yl)ethanol] |
| ≤ 1000 nM | ≤ 1000 nM | Cc1nc(N2CCOC(C(C)O)C2)cc(-n2ncc3cc(C)c(C4CCN(C5CCOC5)CC4)cc32)n1 (single isomer, unassigned) [Example E142, 1-(4-(2-methyl-6-(5-methyl-6-(1-(tetrahydrofuran-3-yl)piperidin-4-yl)-1H-indazol-1-yl)pyrimidin-4-yl)morpholin-2-yl)ethanol] |
| ≤ 1000 nM | ≤ 100 nM | Cc1nc(N2CCOC(C(C)O)C2)cc(-n2ncc3cc(C)c(C4CCN(C5CCOC5)CC4)cc32)n1 (single isomer, unassigned) [Example E136, 1-(4-(2-methyl-6-(5-methyl-6-(1-(tetrahydrofuran-3-yl)piperidin-4-yl)-1H-indazol-1-yl)pyrimidin-4-yl)morpholin-2-yl)ethanol] |
| ≤ 100 nM and 100 nM | ≤ 1000 nM and 63.1 nM | [2H]C1(N2CCC(c3cc4c(cnn4-c4cc(N5CCO[C@H](CO)C5)nc(C)n4)cc3C)CC2)CCOC1 (single isomer, unassigned) [Example E34] |
| ≤ 1000 nM | ≤ 100 nM | Cc1nc(N2CCOC(C(C)O)C2)cc(-n2ncc3cc(C)c(C4CCN(C5CCOC5)CC4)cc32)n1 (single isomer, unassigned) [Example E141, 1-(4-(2-methyl-6-(5-methyl-6-(1-(tetrahydrofuran-3-yl)piperidin-4-yl)-1H-indazol-1-yl)pyrimidin-4-yl)morpholin-2-yl)ethanol] |
| ≤ 1000 nM | ≤ 100 nM | Cc1nc(N2CCO[C@H](CO)C2)cc(-n2ncc3cc(C)c(C4CCN(C5COCC5F)CC4)cc32)n1 (single isomer, unassigned) [Example E149] |
| ≤ 1000 nM | ≤ 100 nM | Cc1nc(N2CCOC(C(C)O)C2)cc(-n2ncc3cc(C)c(C4CCN(C5CCOC5)CC4)cc32)n1 (single isomer, unassigned) [Example E140, 1-(4-(2-methyl-6-(5-methyl-6-(1-(tetrahydrofuran-3-yl)piperidin-4-yl)-1H-indazol-1-yl)pyrimidin-4-yl)morpholin-2-yl)ethanol] |
| ≤ 10 nM | ≤ 10 nM | COc1nc(N2CCO[C@@H](CO)C2)cc(-n2ncc3cc(C)c(C4CCN(C5CCOC5)CC4F)cc32)n1 (single isomer, unassigned) [Example E120] |
| ≤ 100 nM | ≤ 100 nM | Cc1nc(N2CCO[C@H](CO)C2)cc(-n2ncc3cc(C)c(C4CCN(C5COCC5O)CC4)cc32)n1 (single isomer, unassigned) [Example E153] |
| ≤ 1000 nM | ≤ 100 nM and 39.8 nM | [2H]c1nn(-c2cc(N3CCO[C@@H](CO)C3)nc(C)n2)c2cc(C3CCN([C@H]4CCOC4)CC3)c(C)cc12 [Example E95, ((R)-4-(6-(3-deuterium-5-methyl-6-(1-((S)-tetrahydrofuran-3-yl)piperidin-4-yl)-1H-indazol-1-yl)-2-methylpyrimidin-4-yl)morpholin-2-yl)methanol] |

| Structure (SMILES) | IC50 [1] | IC50 [2] |
| --- | --- | --- |
| Cc1nc(N2CCO[C@@H](CO)C2)cc(-n2ncc3cc(C)c(C4CCN(C5CCOC5)CC4F)cc32)n1 (single isomer, unassigned) [Example E102] | ≤ 1000 nM | ≤ 100 nM |
